In paper PMC7837216, “ISRIB Blunts the Integrated Stress Response by Allosterically Antagonising the Inhibitory Effect of Phosphorylated eIF2 on eIF2B” (Molecular Cell, 2021):

Columns and labels:
[1] = molecular target: T1, eIF2B (decamer; ISRIB pocket formed by the β- and δ-subunits) (Homo sapiens, UniProt P49770+Q9UI10); assay: FP competition with FAM-ISRIB; BLI (ISRIB-induced dissociation of eIF2B from P-eIF2α-NTD); format: binding; parameters: gene EIF2B2; purified recombinant human eIF2B decamer; with eIF2Bβ (EIF2B2), with eIF2Bα, γ, ε in the decamer; P-eIF2α-NTD immobilised in the BLI assay
[2] = molecular target: T1, eIF2B (decamer; ISRIB pocket formed by the β- and δ-subunits); assay: fluorescence polarization, kinetic displacement by unlabelled ISRIB (koff); format: binding; parameters: gene EIF2B2; purified recombinant human eIF2B decamer; with eIF2Bβ (EIF2B2), with eIF2Bα, γ, ε in the decamer

Row | EC50 [1] [nM] | fluorescence polarization, kinetic displacement by unlabelled ISRIB (koff) [2] [s⁻¹] | Molecule
1 | 1.8 |  | O=C(COc1ccc(Cl)cc1)N[C@H]1CC[C@H](NC(=O)COc2ccc(Cl)cc2)CC1 [ISRIB]
2 |  | 0.0123 | FAM-ISRIB
